Measured values reported in patent publication US8426433B2, priority 2007, dated 2013).
Read-outs that look alike come from different tables or passages of the source.

Legend:
[1] = system: endogenous thrombin potential in normal donor plasma (PPP); test: Thrombin generation test (endogenous thrombin potential) in normal donor plasma; format: biochemical; conditions: read-out: IC50 (50% reduction in endogenous thrombin potential)
Source text: This method was described in detail in many papers (Hemker H C, Giesen P L, Ramjee M, Wagenvoord R, Beguin S. The thrombogram: monitoring thrombin generation in platelet-rich plasma. Thromb. Haemost., 2000; 83(4): 589-591; Hemker H C, AlDieri R, Beguin S. Thrombin generation assays: accruing clinical relevance. Curr. Opin. Hematol., 2004, 11(3):170-175; Hemker H C, Giesen P, AlDieri R, Regnault V, de Smed E, Wagenvoord R, Lecompte T, Beguin S. The calibrated automated thrombogram (CAT): a universal routine test for hyper- and hypocoagulability. Pathophysiol. Haemost. Thromb., 2002, 32(5-6):249-253). The test is used to measure the kinetics and total quantity of active thrombin generated in a plasma sample over a specified time at a standard clotting activation level in the sample. These applicants' method is suitable for measuring thrombin concentration using a slow-action fluorogenic substrate (BOC-Ile-Gly-Arg-AMC), which gives a highly fluorescent product, 7-amino-4-methylcoumarin (AMC), when broken d own by thrombin. The use of a fluorogenic, rather than chromogenic, substrate is dictated by the fact that the fluorescence level in the sample is virtually unaffected by the solid fibrin clot formed in the metering cell, but this is a qualification that restricts the application of a chromogenic substrate (Hemker H C, Giesen P, AlDieri R, Regnault V, de Smed E, Wagenvoord R, Lecompte T, Beguin S. The calibrated automated thrombogram (CAT): a universal routine test for hyper- and hypocoagulability. Pathophysiol. Haemost. Thromb., 2002, 32(5-6):249-253). On the other hand, it is common knowledge that the bulk of thrombin (about 95%) in the sample is generated after the first clot has already formed (Hemker H C, AlDieri R, Beguin S. Thrombin generation assays: accruing clinical relevance. Curr. Opin. Hematol., 2004, 11(3):170-175).
The kinetics of thrombin generation and ultimately loss in plasma after clotting activation is shown in FIG. 1, which illustrates the relationship between concentration of active thrombin in a plasma sample and time. The area under the thrombin generation time curve (in this invention, from 0 to 50 minutes of incubation) is called endogenous thrombin potential (ETP). The curve is further characterized by tmax, the time when thrombin in the sample reaches maximum concentration, Amax, the maximum thrombin concentration in the system, and tlag, the time before clotting commencement, which is conventionally the time when thrombin reaches a concentration of 5 nM.
Obviously, important clotting information is contained in the shape of thrombin concentration to time curves, as well as the integral ETP level. In particular, against the background of low factor and clotting inhibitor concentration, thrombin concentration maximums can be lower and also broader, although the total ETP might not change at all. The presence of additional thrombin inhibitors in plasma must reduce ETP and maximum attainable thrombin concentration, and increase the clotting lag and the time required for thrombin to achieve maximum concentration.
Measurements were taken as follows: 90 microliters of normal donor plasma (PPP), 0 to 20 microliters of the test substance solution, and 20 to 0 microliters of buffering solution (20 mM of HEPES, 140 mM of NaCal, pH 7.5) were deposited in the holes of a 96 hole board so that the total volume of added substance and buffer is always 20 microliters. Whereupon 20 microliters of a fluorogenic substrate solution (at 5 mM initial concentration) was added to each of the board holes, and plasma was heated for 3 to 5 minutes at 37° C. Next, 25 microliters of a clotting activator solution was added simultaneously (using a multichannel pipette) to all the holes. A thromboplastin solution prepared from a standard thromboplastin reagent diluted to 1/250th of its original concentration by the same buffer further containing 80 mM of CaCl2 to measure the prothrombin time (PT) (RENAM, Russia) was used as activator. […]

Acute toxicity, LD50 = conditions: mouse, in vivo, mice
[2] = Argatroban after clinical testing; cited from earlier work
[3] = system: endogenous thrombin potential in diluted donor platelet-free plasma; test: ETP in plasma diluted with NaCl 0.9% plasma-substituting solution containing inhibitor; format: biochemical; conditions: 0.25-0.5 mcM in NaCl 0.9% solution; plasma diluted at a ratio of 1.5 to 4, FIG. 12
Protocol: Donor blood prepared on a 3.8% sodium citrate at a 9:1 ratio of blood to citrate (20 ml) was centrifuged for 15 minutes at 1,300 g. Some of the platelet-poor plasma (PPP) was centrifuged for another 10 minutes at 10,000 g to obtain a platelet-free plasma (PFP). The PFP thus produced was then used for measuring the endogenous thrombin potential.
PFP was diluted at a ratio of 1.5, 2, 3 and 4 with either transfusion-grade physiological saline (NaCl 0.9%) or with the same solution containing additionally a thrombin inhibitor HC-025s-IOC (at concentrations of 0.25, 0.5 or 1 mcM). For constant concentration of Ca^+2 to be maintained through the tests after recalcification, sodium citrate concentration was maintained constant in all plasma dilutions to be identical to the concentration in initial undiluted plasma, for which purpose the initial plasma-substituting solutions used to dilute the plasma were first mixed with 3.8% sodium citrate similarly with initial blood at a 9:1 solution to citrate ratio.
The plasma sample used in the above-described ETP measurement method was always diluted at a 1.5 ratio throughout. An opportunity must be provided to measure ETP in undiluted plasma in experiments to dilute plasmas with PSS. […] Endogenous thrombin potential was measured for each of the diluted plasmas in the presence of different concentrations of HC-025s-IOC.

[4] = system: clot growth in platelet-free plasma; test: Clot growth rate in space (light scattering) in platelet-free plasma; format: biochemical; conditions: 1 mcM of the compound in normal plasma versus plasma control, FIG. 9-11
Source text: The clot growth rate in space describes the dynamics of clotting, which is a process that develops over time and across space. This method measures light scattering to determine the size of the clot at different periods of time once clotting has begun. Clotting is activated in the system by an activator precisely localized in space without stirring. The activator was alternatively either a simple glass plate having a ground edge to cause contact activation on the internal path or fibroblast-coated polyethylene terephthalate films provided on the surface with a tissue factor to activate clotting on the external path. […]
Light scattering profiles corresponding to different time moments from the start of the experiment were obtained by processing the series of recorded images. […] The clot size in each frame was determined as the distance from the activator to the clot edge assumed to be the point where light scattering was half the maximum value. […]
The last output processing stage was calculating the clot growth rate on the basis of the light scattering profiles obtained. The clot size was assessed at each point of time as the distance of a respective light scattering profile from the activator (at half-point of the maximum profile height). […] The quasi-stationary growth rate of the clot was calculated from the inclination angle of the linear portion of the curve.

Cc1cc(OCCCn2ccsc2=N)cc(OS(=O)(=O)c2ccccc2)c1
IC50 [1]: 24.8 µM | LD50 (Acute toxicity, LD50; 0.9% NaCl): > 199 mg/kg

CC1CNc2c(cccc2S(=O)(=O)N[C@@H](CCCNC(=N)N)C(=O)N2CC[C@@H](C)C[C@@H]2C(=O)O)C1 (stereo partly drawn) [Argatroban]
LD50 [2]: 475 mg/kg

Cc1cc(OCCC[n+]2ccc(N)cc2)cc(OS(=O)(=O)c2ccccc2)c1 [HC-016s-IOC, 4-amino-1-(3-(3-methyl-5-(benzenesulfonyloxy)phenoxy)propyl)-pyridinium iodide]
IC50 [1]: ~240 µM

Cc1cc(OCCCSC(=N)N)cc(OS(=O)(=O)c2ccccc2)c1.I [HC-018s-IOC, 3-(3-methyl-5-(benzenesulfonyloxy)phenoxy)propyl-isothiouronium iodide]
LD50 (Acute toxicity, LD50; 0.9% NaCl + cremophor 20%): < 441 mg/kg

Cc1cc(OCC[n+]2ccc(N)cc2)cc(OS(=O)(=O)c2ccccc2)c1 [HC-019s-IOC, 4-amino-1-(2-(3-methyl-5-(benzenesulfonyloxy)phenoxy)ethyl)-pyridinium iodide]
IC50 [1]: 0.25 µM | LD50 (Acute toxicity, LD50; 0.9% NaCl + cremophor 20%): > 278 mg/kg

Cc1cc(OCCSC(=N)N)cc(OS(=O)(=O)c2ccccc2)c1 [HC-020s-IOC, 2-(3-methyl-5-(benzenesulfonyloxy)phenoxy)ethyl-isothiouronium iodide]
LD50 (Acute toxicity, LD50; 0.9% NaCl + cremophor 20%): > 1110 mg/kg

Cc1cc(OCCC[n+]2ccc(N)cc2)cc(OS(=O)(=O)c2ccccc2Cl)c1 [HC-023s-IOC]
IC50 [1]: 40 µM

Cc1cc(OCC[n+]2ccc(N)cc2)cc(OS(=O)(=O)c2ccccc2Cl)c1.[I-] [HC-025s-IOC, 4-amino-1-(2-(3-methyl-5-(2-chlorobenzenesulfonyloxy)phenoxy)ethyl)-pyridinium iodide]
IC50 [1]: 0.26 µM | ETP readings for different plasma dilutions [3]: closest thing to normal | Spatial clot growth dynamics (clot size versus time) [4]: inhibits clotting

CNc1ccc(S(=O)(=O)N(C)c2ccccc2)cc1NC(=O)CC[n+]1ccc(N)cc1.[Cl-] [HC_028s_IOC]
IC50 [1]: ~9 µM | LD50 (Acute toxicity, LD50; 0.9% NaCl + cremophor 20%): 257 ± 31 mg/kg

Cc1cc(OCCC[n+]2ccc(N)cc2)cc(OS(=O)(=O)c2ccccc2F)c1 [HC_029s_IOC, 4-amino-1-(3-(3-methyl-5-(2-fluorobenzenesulfonyloxy)phenoxy)propyl)-pyridinium iodide]
IC50 [1]: 27 µM

Cc1cc(OCCC[n+]2ccsc2N)cc(OS(=O)(=O)c2ccccc2F)c1 [HC_030s_IOC]
IC50 [1]: ~8.6 µM

Cc1cc(OCCCSC(=N)N)cc(OS(=O)(=O)c2ccccc2F)c1 [HC_031s_IOC]
IC50 [1]: 1.24 µM

C/N=C(/N)SCCCOc1cc(C)cc(OS(=O)(=O)c2ccccc2Cl)c1 [HC_032s_IOC]
IC50 [1]: 25.2 µM

C/N=C(/N)CSCCCOc1cc(C)cc(OS(=O)(=O)c2ccccc2Cl)c1 [HC_033s_IOC]
IC50 [1]: 0.527 µM

Cc1cc(OCC[n+]2ccc(N)cc2)cc(OS(=O)(=O)c2ccccc2S(C)(=O)=O)c1 [HC_036s_IOC]
IC50 [1]: 0.158 µM

Cc1cc(OCC[n+]2ccc(N)cc2)cc(OS(=O)(=O)c2ccccc2F)c1 [HC_037s_IOC]
IC50 [1]: ~0.1 µM

Cc1ccc(S(=O)(=O)Oc2cc(C)cc(OCC[n+]3ccc(N)cc3)c2)cc1 [HC_038s_IOC]
IC50 [1]: ~4 µM

Cc1cc(OCC[n+]2ccc(N)cc2)cc(OS(=O)(=O)c2ccc(Cl)cc2)c1 [HC_039s_IOC]
IC50 [1]: 0.15 µM

Cc1cc(OCCSC(=N)N)cc(OS(=O)(=O)c2ccccc2S(C)(=O)=O)c1 [HC_040s_IOC]
IC50 [1]: 0.8 µM

Nc1cc[n+](CCOc2cccc(NS(=O)(=O)c3ccccc3)c2)cc1 [HC_041s_IOC]
IC50 [1]: 1.6 µM

Cc1cc(OCC[n+]2ccsc2N)cc(OS(=O)(=O)c2ccccc2Cl)c1 [HC_045s_IOC]
IC50 [1]: 16 µM

Cc1cc(OCC[n+]2ccc(N)nc2)cc(OS(=O)(=O)c2ccccc2)c1 [HC_047s_IOC]
IC50 [1]: 2.5 µM
